Values of other authors as cited in US6376468B1, “Protein:prenyl transferase inhibitors” (Nederlandse Organisatie Voor …, priority 1999, dated 2002).

Target: T1, Ras farnesyl transferase from human colon carcinoma (Homo sapiens, UniProt P49354+P49356)
T1 construct: host or cells: human colon carcinoma
Details: J. Biol. Chem. 268 (1993), 20695-98

## CSCCC(NC(=O)c1cccc(CNC(=O)C(N)CS)c1)C(=O)O (stereo not shown) [Cys-NH-CH2-mC6H4-CO-Met]
  IC50: 60 nM
